Entries after “also recorded” stand apart in the source; their conditions may differ.
How the values were obtained:
[1] = test system: long term reconstituting cells (HSPC); experiment: Competitive transplantation of mobilized peripheral blood into lethally irradiated congenic recipients (incl. serial transplant); assay type: in vivo, mice; settings: for potency of mobilization with AMD3100 compared with AMD3100 alone: AMD3100 5 mg/kg plus heparin 100 U/mouse or protamine sulfate 40 mg/kg, relative frequency of engrafted donor cells, AMD3100 alone = 1; for stem cell mobilization by the agent alone: Example 3, data not shown; for mobilization of long term reconstituting cells (PB competitive transplantation, primary recipients): wild type mice, single dose heparin 100 U/mouse added to G-CSF regimen
Description: Blood from animals treated with single dose AMD3100 alone (5 mg/kg) or AMD3100 plus heparin (100 U/mouse) or protamine sulfate (40 mg/kg) was used in transplantation of lethally irradiated congenic hosts and the relative frequency of engrafted donor cells is indicated. Line at 1=AMD3100 alone. Results are from 6-10 animals/group.
Hypothesizing that endogenous HSPG could be competed with by known pharmacologic HSPG, we examined whether heparin sulfate could mimic the EXT1 deletion effect on stem cell localization. Initially, this was done using a single dose of heparin sulfate (100 U/mouse) after a standard G-CSF mobilization regimen, harvesting the peripheral blood and using it to reconstitute lethally irradiated congenic recipients (FIG. 3). The primary recipients were then harvested after 4 months and used to transplant secondary lethally irradiated recipients.
For non-competitive BM transplantation, to create the chimeras described in FIG. 1a, one million whole BM cells from B6.SJL (CD45.1) mice were transplanted into lethally irradiated (9.5 Gy from a Cesium source 4-24 hours before transplantation) Ext1-loxP/loxP-Mx1cre (CD45.2) recipients six-to-eight weeks before pIpC administration. Neutrophil and platelet recovery assay was performed as previously described (Hoggatt et al., 2013). Briefly, 3 million mobilized PB mononuclear cells (MNC) from C57BL/6J (CD45.2) mice were transplanted into lethally irradiated B6.SJL (CD45.1) mice and followed up for at least 36 days. For transplantation without cytotoxic conditioning, 1, 4 or 8 million whole BM cells from B6.SJL mice were transplanted into Ext1-loxP/loxP-Mx1cre recipients three weeks after pIpC administration. For competitive transplantation of mobilized peripheral blood (PB), 150 ul of PB (CD45.2) was mixed with 2×10^5 congenic BM support cells and injected into lethally irradiated CD45.1 recipients. Cells were infused via lateral tail vein injection. Engraftment was monitored at 4-week intervals by FACS analysis.
(§1) Recombinant human G-CSF (Neupogen, Filgrastrim) was administered at 125 ug/kg of TBW every 12 hours for eight consecutive injections. Heparin Sodium (APP Pharmaceuticals) was injected i.p. at a single dose of 100 U. Hirudin was used at 40 mg/kg of TBW in a single dose. Vcam1 neutralizing antibody and the corresponding isotype control (Rat IgG2a, k) were injected intravenously at 2 mg/kg of TBW every day for three doses and PB samples were obtained through retro-orbital bleeding the day following the last injection. AMD3100 was administered subcutaneously at a single dose of 5 mg/kg TBW. PB samples were obtained through retro-orbital bleeding 3 hours after the last injection of G-CSF and 1 hour after Heparin, AMD3100, or Hirudin injection.

[2] = test system: circulating hematopoietic stem/progenitor cells (HSPC); experiment: Peripheral blood colony forming unit (CFU-C) assay of circulating progenitors after mobilization; assay type: in vivo, mice
Description: as §1
CFU assays were performed as previously described (Ferraro et al., 2011). Equal volumes of PB (50 to 200 juL depending upon the experiment) were subjected to red blood cell lysis with ammonium-chloride-potassium buffer, resuspended in 4 ml of methocult M3434 (Stem Cell Technologies), plated in 35 mm culture dishes (1 mL/dish) and cultured at 37° C. for 8 days before scoring for colony formation.

[3] = Peripheral WBC count (complete blood count) after mobilization; assay type: in vivo; settings: C57BL/6J mice; heparin alone 100 U/mouse one hour before PB harvest, vs vehicle
Description: as §1
Blood counts were performed with the automatic Vetscan HM2 (Abaxis).

[4] = test system: Vcam1; experiment: Vcam1 protein level in CD45−Ter119−Mx1+ mesenchymal cells (flow cytometry); assay type: in vivo, mice; settings: heparin one hour before PB harvest vs vehicle
Description: Immunophenotypic characterization of the hematopoietic and mesenchymal compartments was performed as previously described (Gurumurthy et al., 2010). For details see supplementary information. Vcam1 and Cxcl12 protein levels were evaluated with an anti-Vcam1-APC and an anti-Cxcl12-APC antibody respectively and the corresponding isotype controls (R&D Systems). All data collection was performed on an LSRII or FACS Aria II (Beckon Dickinson) and data analysis was performed with FlowJo (Treestar).
as §1

[5] = test system: HSPC; settings: cited from earlier work
[6] = test system: CD34+ cells; settings: cited from earlier work
[7] = test system: HSPC; experiment: HSPC mobilization in mice (background statements, GRO-β and heparin); assay type: in vivo; settings: unlike G-CSF; data not shown
Description: It does so acutely, mobilizing HSPC maximally by 15 minutes post infusion in mice. […] It is an excellent candidate to serve as a niche-vacating agent. We have also recently identified a novel involvement of heparan sulfate proteoglycans […] in HSC retention in the bone marrow that can be manipulated pharmacologically to induce stem cell mobilization of cells functionally distinctive from those mobilized by G-CSF. This process is one that involves the use of heparin and AMD3100 and achieves robust mobilization using approved agents that can quickly move to clinical trial.

[8] = test system: HSPCs; experiment: Type I diabetes-induced mobilopathy model, G-CSF mobilization with PB competitive transplantation; assay type: in vivo, mice; settings: G-CSF alone
Text: Hematopoietic stem cell transplantation remains the gold standard curative therapy for a number of hematological disorders. However, G-CSF mobilization resistance may compromise lifesaving therapy for some individuals. We therefore evaluated whether genetic or pharmacological competitive inhibition of HSPG may facilitate G-CSF-induced HSPC egress from the BM in a murine model of Type I diabetes-induced mobilopathy (Ferraro et al., 2011). […] However, the compromised response to G-CSF was fully corrected in Type I diabetic mice lacking Ext1 expression in Mx1+ mesenchymal cells (FIG. 9K).
For non-competitive BM transplantation, to create the chimeras described in FIG. 1a, one million whole BM cells from B6.SJL (CD45.1) mice were transplanted into lethally irradiated (9.5 Gy from a Cesium source 4-24 hours before transplantation) Ext1-loxP/loxP-Mx1cre (CD45.2) recipients six-to-eight weeks before pIpC administration. Neutrophil and platelet recovery assay was performed as previously described (Hoggatt et al., 2013). Briefly, 3 million mobilized PB mononuclear cells (MNC) from C57BL/6J (CD45.2) mice were transplanted into lethally irradiated B6.SJL (CD45.1) mice and followed up for at least 36 days. […] Engraftment was monitored at 4-week intervals by FACS analysis. […]

protamine sulfate
potency of mobilization with AMD3100 compared with AMD3100 alone [1]: enhance potency of mobilization compared with AMD3100 alone
stem cell mobilization by the agent alone [1]: Neither were sufficiently effective alone

heparin
number of circulating HSPCs as measured by CFU assays ([2]; C57BL/6J mice, heparin alone 100 U/mouse one hour before PB harvest, vs vehicle (PBS)): modest, yet significant increase; also recorded: enhanced HSPC mobilization compared to vehicle
AMD3100-induced mobilization (CFU) with co-administration of heparin ([2]; heparin plus AMD3100 vs AMD3100 alone): enhances AMD3100-induced mobilization
potency of mobilization with AMD3100 compared with AMD3100 alone [1]: enhance potency of mobilization compared with AMD3100 alone
stem cell mobilization by the agent alone [1]: Neither were sufficiently effective alone
secondary engraftment / self-renewal of mobilized cells (serial transplantation) ([1]; heparin 100 U/mouse added to G-CSF regimen, vs G-CSF alone, secondary lethally irradiated recipients): distinctly more capable at providing secondary engraftment
HSPC mobilization in Ext1 mutant (EXT1 KO) mice ([1]; heparin added to G-CSF vs G-CSF alone, Ext1 mutant mice): loss of its effect
mobilization of long term reconstituting cells (PB competitive transplantation, primary recipients) ([1]; vs G-CSF alone): significantly enhances G-CSF induced mobilization
mobilization of long term reconstituting cells (PB competitive transplantation, primary recipients) ([1]; vs G-CSF alone, listed as heparin sulfate): additive mobilization of stem cells
WBC counts [3]: without a significant change
Vcam1 levels in Mx1+ mesenchymal cells [4]: does not modulate Vcam1 levels
ability to induce mobilization on its own ([5]; Frenette and Weiss, 2000): lack the ability to induce mobilization on its own

hirudin
effect on G-CSF-induced HSPC mobilization (relative PB reconstitution 16 weeks post transplantation) ([1]; hirudin 40 mg/kg single dose with G-CSF, C57BL/6J mice): did not impact G-CSF-induced HSPC mobilization

c1cc(CN2CCCNCCNCCCNCC2)ccc1CN1CCCNCCNCCCNCC1 [AMD3100]
G-CSF-induced mobilization in Ext1 deficient mice (relative PB reconstitution) ([1]; AMD3100 in combination with G-CSF vs G-CSF alone): augments G-CSF-induced mobilization
patients reporting diarrhea or injection site reaction ([6]; after Plerixafor administration): approximately 33%

GRO-β: CXCR2 agonist chemokine capable of rapidly mobilizing HSPCs
changes in marrow morphology by immunohistochemistry [7]: not associated with changes in marrow morphology
time of maximal HSPC mobilization post infusion ([5]; mice): 15 min
engraftment potential of mobilized long term repopulating HSCs compared with G-CSF ([5]; mouse, in vivo): superior engraftment potential

B1: G-CSF: Recombinant human G-CSF, hematopoietic growth factor used clinically to mobilize HSC and HPC (protein, UniProt P09919 31-207, looked up)
Granulocyte …: TPLGPASSLPQSFLLKCLEQVRKIQGDGAALQEKLVSECATYKLCHPEELVLLGHSLGIPWAPLSSCPSQALQLAGCLSQLHSGLFLYQGLLQALEGISPELGPTLDTLQLDVADFATTIWQQMEELGMAPALQPTQGAMPAFASAFQRRAGGVLVASHLQSFLEVSYRVLRHLAQP
modifications: filgrastim
notes: Recombinant human G-CSF, hematopoietic growth factor used clinically to mobilize HSC and HPC
HSPC mobilization in Type I diabetic mice [8]: failed to efficiently mobilize HSPCs
poor mobilization in response to G-CSF, share of normal, healthy donors ([6]; normal, healthy donors): 15%
patients failing to mobilize an optimal CD34+ cell number for autologous transplantation ([6]; patients, G-CSF mobilization): Up to 60%
